Assay results as given in patent US8795984B2, “Production of glycoproteins with reduced O-glycosylation” (Merck Sharp & Dohme Corp., priority 2005, dated 2014).

Assays:
[1] = Solubility in the cell culture conditions; assay type: physicochemical; conditions: in the cell culture conditions described (BMGY/BMMY)
Procedure: (§1) Kringle 1-3 protein expression for the transformed yeast strains was carried out at in shake flasks at 24° C. with buffered glycerol-complex medium (BMGY) consisting of 1% yeast extract, 2% peptone, 100 mM potassium phosphate buffer pH 6.0, 1.34% yeast nitrogen base, 4×10-5% biotin, and 1% glycerol. The induction medium for protein expression was buffered methanol-complex medium (BMMY) consisting of 1% methanol instead of glycerol in BMGY. Pmt inhibitor Pmti-1, Pmti-2, or Pmti-3 in methanol was added to the growth medium to a final concentration of 0.2 μM, 2 μM, or 20 μM at the time the induction medium was added. Cells were harvested and centrifuged at 2,000 rpm for five minutes. The Pmt inhibitors Pmti-1, Pmti-2, and Pmti-3 are essentially interchangeable, with small variations in ease of use.

[2] = test system: O-glycosylation of secreted recombinant reporter proteins; experiment: Western blot of His-tagged Kringle 1-3 protein in growth media (FIG. 1); assay type: cell-based, Pichia pastoris; conditions: yJC53 treated with 2 or 20 μM, compared with pmt1Δ strain yJC55
Procedure: as §1, with “use. […]” for “use.”

O=C(O)CN1C(=O)/C(=C/c2ccc(OCCc3ccccc3)c(OC(CO)c3ccccc3)c2)SC1=S (centres unmarked) [Pmti-3]
solubility [1]: greater than that of Pmti-1 and Pmti-2

O=C(O)CN1C(=O)C(=Cc2ccc(OCc3ccccc3)c(OCc3ccccc3)c2)SC1=S [Pmti-1, 5-[[3,4-bis(phenylmethoxy)phenyl]methylene]-4-oxo-2-thioxo-3-thiazolidineacetic Acid]
O-glycosylation of Kringle 1-3 protein on Western blot [2]: reduced O-glycosylation to a level similar to that observed in a strain lacking Pmt1
